The subject of experiment [1] is HepG2 cells. Briefly: SRB assay, cytotoxicity of topotecan ± safranal. It counts as cell-based. The following applies: for IC50: Homo sapiens. The protocol: SRB assay. The effect of safranal on the cytotoxicity of the topoisomerase 1 inhibitor topotecan was tested using the sulforhodamine-B (SRB) assay as previously described. Exponentially growing HepG2 cells were seeded in 96-well plates at cell density of 1×10^4 cells per well. […] At the end of the incubation period, cells were fixed with 50% trichloroacetic acid (TCA) for 1 hours at 4° C. followed by washing, staining with SRB for 30 min followed by washing and solubilization of the stain with 10 mM Tris base (pH 10.5). The optical density (OD) at each well was measured spectrophotometrically at 564 nm with an ELISA microplate reader (Metertech. S960, USA). The IC50 values were calculated using sigmoidal concentration-response curve fitting models (Graph Pad, Prizm software).
A general note: The SRB assay estimates cell density from bound dye.

In experiment [2] the test system is DEN-induced hepatic neoplasia. The experiment is described as follows: Serum ALT and AST in DEN-induced HCC model. It counts as in vivo, male Wistar rats. The following applies: HCC rats, oral gavage 5 days a week, weeks 17-19, safranal 200 mg/kg, sorafenib 10 mg/kg, mean±SEM, n=6. The method, then: A modified version of the protocol described by DePeralta et al. (2016) and Schiffer et al. (2005) was used here to establish the hepatocarcinogenesis model.
On the first 15 weeks, the control PBS group was treated with 1×PBS, whereas the experimental groups were given an intraperitoneal injection (IP) of 50 mg/kg of diethylnitrosoamine (DEN, Sigma Aldrich), a widely used chemical for inducing cancer, once a week. DEN was diluted with 1×PBS. Following a one-week break (week 16), the next three weeks (weeks 17 to 19) of treatment commenced. All drugs were administrated by oral gavage. All doses were chosen according to literature (Alsaied et al., 2014; Karafakioglu et al., 2017). For the HCC+sorafenib group, the drug (Carbosynth Limited) was administered at a dose of 10 mg/kg, five days a week. For the HCC+safranal group, the drug (Sigma Aldrich) was administered at a dose of 200 mg/kg, five days a week. For the HCC+safranal+sorafenib group, the drugs were administered at a dose of 200 mg/kg safranal+10 mg/kg sorafenib, five days a week. Both safranal and sorafenib were diluted with 1×PBS and drops of Tween 80. […] After 24-hours from last treatment, the rats were euthanized by mild diethyl ether and dissected in equal conditions. Blood and whole liver were collected.
Rats were euthanized then blood was collected by decapitation and processed for later investigation. The blood was collected in collection tubes (BD Vacutainer) and serum was separated by centrifugation at 1200× g for 10 minutes. Serum was collected and flash frozen immediately then stored at −80° C. for further analysis.
Alanine Transaminase (ALT), and Aspartate Aminotransferase (AST) assays were performed using commercial kits (Abcam), according to the protocol provided. ALT and AST activities were measured spectrophotometrically using Epoch by BioTek.

Read-outs that look alike come from different tables or passages of the source.

For orientation: IC50 means the concentration that inhibits the measured activity by half. Take `CC[C@@]1(O)C(=O)OCc2c1cc1n(c2=O)Cc2cc3c(CN(C)C)c(O)ccc3nc2-1` [Topotecan, topotecan]: in experiment [1] (HepG2, incubation with safranal for 24 or 48 h before topotecan), the sensitization factor came out at 73. For the same compound, the half-maximal inhibitory concentration (IC50) in experiment [1] (HepG2, HepG2, SRB, topotecan 48 h alone or after safranal 500 μM pre-incubation, read-out: IC50 of topotecan ± safranal) was determined as 118 nM; in experiment [1] (HepG2, HepG2, incubation with safranal for 24 or 48 h before topotecan, read-out: topotecan IC50) it was 1.6 nM; in experiment [1] (HepG2, HepG2, topotecan alone, read-out: topotecan IC50), 118 nM.
`CNC(=O)c1cc(Oc2ccc(NC(=O)Nc3ccc(Cl)c(C(F)(F)F)c3)cc2)ccn1` [sorafenib, reference compound]: in experiment [2], the ALT worked out at 13.42 ± 1.12 mU/ml and the AST was 11.14 ± 0.62 mU/ml.
